{
  "source": "patent US11236258B2",
  "about": "“Aqueous based dust control compositions and methods” (Trican Well Service Ltd, priority 2018, dated 2022)",
  "origin": "cited, not measured here",
  "key": {"[1]": {"settings": "within 14 days"}},
  "data": [
    {"smiles": "C[N+](C)(C)CCO", "note": "[CHO, choline]", "values": [
      {"measurement": "solubility in water", "value": 3610, "unit": "µg/mL"}
    ]},
    {"smiles": "C[N+](C)(C)CCO.[Cl-]", "note": "[Choline chloride, choline chloride]", "values": [
      {"measurement": "measured solubility in water", "value": 650000, "unit": "µg/mL"},
      {"measurement": "biodegradation, degradation", "setting": "[1]", "value": 93, "unit": "%"}
    ]},
    {"smiles": "C[N+](C)(C)CCOP(=O)(O)OCC(O)CO", "note": "(stereo not shown) [GPC, glycerophosphocholine]", "values": [
      {"measurement": "solubility in water", "value": 4040, "unit": "µg/mL"}
    ]}
  ]
}
